Structures are written as SMILES.

The source of these data is patent publication US8785445B2 (Array BioPharma Inc., priority 2008, dated 2014).

For one assay, the target named is T1, human DP2 (Homo sapiens, UniProt Q9Y5Y4).
T1 construct: expressed in transfected cells; membranes prepared
T1 sequence (Q9Y5Y4 1-395): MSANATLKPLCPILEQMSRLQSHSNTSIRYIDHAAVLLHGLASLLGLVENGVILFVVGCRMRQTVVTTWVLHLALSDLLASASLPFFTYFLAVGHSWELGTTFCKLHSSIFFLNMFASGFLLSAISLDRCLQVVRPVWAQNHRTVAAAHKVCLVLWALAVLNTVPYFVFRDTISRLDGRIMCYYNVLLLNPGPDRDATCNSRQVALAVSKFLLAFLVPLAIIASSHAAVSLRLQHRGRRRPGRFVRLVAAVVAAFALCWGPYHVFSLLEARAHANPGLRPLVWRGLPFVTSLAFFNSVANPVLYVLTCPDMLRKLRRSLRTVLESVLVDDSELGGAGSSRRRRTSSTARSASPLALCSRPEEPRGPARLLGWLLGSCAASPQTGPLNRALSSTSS
Description: DP-2 binding inhibition assay (3H-PGD2, membranes of DP2-expressing K562 cells). Conditions: 0.1% BSA, read-out: EC50 (nM) 0.1% BSA. The procedure, abridged:
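Membranes from K562 clones stably expressing human DP2 were incubated 60 min at room temperature with 3H-PGD2 and compound, with 0.1% BSA, 1% HSA or 4% HSA, then filtered and counted.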
What is called EC50 is the concentration giving half of the maximal effect. For the compound `O=C(Nc1ccc(-c2ccc(C(F)(F)F)cc2)nn1)c1ccc(Oc2cc3c(cc2Cl)C(C(=O)O)CCO3)cc1` (stereo not drawn) [Example 98, Sodium 6-chloro-7-(4-(6-(4-(trifluoromethyl)phenyl)pyridazin-3-ylcarbamoyl)phenoxy)chroman-4-carboxylate], the EC50 came to 17.9 nM.

Regarding `O=C(Nc1cccc(-c2ccc(Cl)cc2)n1)c1ccc(Oc2c(Cl)cc3c(c2C2CC2)OCCC3C(=O)O)cc1` (stereo not drawn) [Example 108, Sodium 6-chloro-7-(4-(6-(4-chlorophenyl)pyridin-2-ylcarbamoyl)phenoxy)-8-cyclopropylchroman-4-carboxylate], the EC50 was 8 nM.

Still in this assay, the particulars now being: 4% HSA, read-out: EC50 (nM) 4% HSA.
`CC(C)(C)Sc1cccc(NC(=O)c2ccc(Oc3cc4c(cc3Cl)C(C(=O)O)CCO4)cc2)n1` (stereo not drawn) [Example 91, 7-(4-(6-(tert-Butylthio)pyridin-2-ylcarbamoyl)phenoxy)-6-chlorochroman-4-carboxylic acid]: the EC50 amounted to 897 nM.

With `O=C(Nc1cncc(-c2cccc(Cl)c2)n1)c1ccc(Oc2cc3c(cc2Cl)C(C(=O)O)CCO3)cc1` (stereo not drawn) [Example 92, 6-Chloro-7-(4-(6-(3-chlorophenyl)pyrazin-2-ylcarbamoyl)phenoxy)chroman-4-carboxylic acid], the EC50 came out at 415 nM.

Turning to `O=C(Nc1cncc(-c2ccc(C(F)(F)F)cc2)n1)c1ccc(Oc2cc3c(cc2Cl)C(C(=O)O)CCO3)cc1` (stereo not drawn) [Example 93, 6-Chloro-7-(4-(6-(4-(trifluoromethyl)phenyl)pyrazin-2-ylcarbamoyl)phenoxy)chroman-4-carboxylic acid], the EC50 stood at 80.5 nM.

Take `O=C(Nc1cncc(-c2cccc(C(F)(F)F)c2)n1)c1ccc(Oc2cc3c(cc2Cl)C(C(=O)O)CCO3)cc1` (stereo not drawn) [Example 94, 6-chloro-7-(4-(6-(3-(trifluoromethyl)phenyl)pyrazin-2-ylcarbamoyl)phenoxy)chroman-4-carboxylic acid]: the EC50 was determined as 208 nM.

Turning to `O=C(Nc1cnc(-c2ccc(Cl)cc2)cn1)c1ccc(Oc2cc3c(cc2Cl)C(C(=O)O)CCO3)cc1` (stereo not drawn) [Example 95, 6-Chloro-7-(4-(5-(4-chlorophenyl)pyrazin-2-ylcarbamoyl)phenoxy)chroman-4-carboxylic acid], the EC50 was found to be 365 nM.

With `O=C(Nc1cnc(-c2cccc(Cl)c2)cn1)c1ccc(Oc2cc3c(cc2Cl)C(C(=O)O)CCO3)cc1` (stereo not drawn) [Example 96, 6-Chloro-7-(4-(5-(3-chlorophenyl)pyrazin-2-ylcarbamoyl)phenoxy)chroman-4-carboxylic acid], the EC50 is 274 nM.

Turning to `O=C(Nc1ccc(-c2cccc(Cl)c2)nn1)c1ccc(Oc2cc3c(cc2Cl)C(C(=O)O)CCO3)cc1` (stereo not drawn) [Example 97, 6-Chloro-7-(4-(6-(3-chlorophenyl)pyridazin-3-ylcarbamoyl)phenoxy)chroman-4-carboxylic acid], the EC50 was 203 nM.

Turning to `O=C(Nc1ccc(-c2ccc(C(F)(F)F)cc2)nn1)c1ccc(Oc2cc3c(cc2Cl)C(C(=O)O)CCO3)cc1` (stereo not drawn) [Example 98, Sodium 6-chloro-7-(4-(6-(4-(trifluoromethyl)phenyl)pyridazin-3-ylcarbamoyl)phenoxy)chroman-4-carboxylate], the half-maximal effective concentration (EC50) is 112 nM.

For the compound `O=C(Nc1ccc(-c2cccc(C(F)(F)F)c2)nn1)c1ccc(Oc2cc3c(cc2Cl)C(C(=O)O)CCO3)cc1` (stereo not drawn) [Example 99, Sodium 6-chloro-7-(4-(6-(3-(trifluoromethyl)phenyl)pyridazin-3-ylcarbamoyl)phenoxy)chroman-4-carboxylate], the EC50 is 235 nM.

With `O=C(Nc1ccnc(-c2ccc(Cl)cc2)n1)c1ccc(Oc2cc3c(cc2Cl)C(C(=O)O)CCO3)cc1` (stereo not drawn) [Example 100, sodium 6-chloro-7-(4-(2-(4-chlorophenyl)pyrimidin-4-ylcarbamoyl)phenoxy)chroman-4-carboxylate], the EC50 worked out at 46 nM.

`Cc1nc(NC(=O)c2ccc(Oc3cc4c(cc3Cl)C(C(=O)O)CCO4)cc2)cc(-c2ccc(Cl)cc2)n1` (stereo not drawn) [Example 101, Sodium 6-chloro-7-(4-(6-(4-chlorophenyl)-2-methylpyrimidin-4-ylcarbamoyl)phenoxy)chroman-4-carboxylate]: the EC50 was 998 nM.

In the case of `Cc1cc(NC(=O)c2ccc(Oc3cc4c(cc3Cl)C(C(=O)O)CCO4)cc2)nc(-c2ccc(C(F)(F)F)cc2)n1` (stereo not drawn) [Example 102, Sodium 6-chloro-7-(4-(6-methyl-2-(4-(trifluoromethyl)phenyl)pyrimidin-4-ylcarbamoyl)phenoxy)chroman-4-carboxylate], the EC50 stood at 21.2 nM.

With `O=C(Nc1cccc(-c2ccc(Cl)cc2Cl)n1)c1ccc(Oc2cc3c(cc2Cl)C(C(=O)O)CCO3)cc1` (stereo not drawn) [Example 103, Sodium 6-chloro-7-(4-(6-(2,4-dichlorophenyl)pyridin-2-ylcarbamoyl)phenoxy)chroman-4-carboxylate], the EC50 was found to be 57.1 nM.

Consider `COc1cc(Cl)ccc1-c1cccc(NC(=O)c2ccc(Oc3cc4c(cc3Cl)C(C(=O)O)CCO4)cc2)n1` (stereo not drawn) [Example 104, Sodium 6-chloro-7-(4-(6-(4-chloro-2-methoxyphenyl)pyridin-2-ylcarbamoyl)phenoxy)chroman-4-carboxylate], for which the EC50 came to 116 nM.

Take `CC(C)Cc1cccc(NC(=O)c2ccc(Oc3cc4c(cc3Cl)C(C(=O)O)CCO4)cc2)n1` (stereo not drawn) [Example 105, 6-Chloro-7-(4-(6-isobutylpyridin-2-ylcarbamoyl)phenoxy)chroman-4-carboxylic acid]: the EC50 is 133 nM.

With `O=C(Nc1cccc(-c2ccc(Cl)cc2)n1)c1ccc(Oc2c(Cl)cc3c(c2Br)OCCC3C(=O)O)cc1` (stereo not drawn) [Example 106, Sodium 8-bromo-6-chloro-7-(4-(6-(4-chlorophenyl)pyridin-2-ylcarbamoyl)phenoxy)chroman-4-carboxylate], the EC50 worked out at 87.7 nM.

Take `O=C(Nc1cccc(-c2ccc(Cl)cc2)n1)c1ccc(Oc2c(C3CC3)cc3c(c2C2CC2)OCCC3C(=O)O)cc1` (stereo not drawn) [Example 107, Sodium 7-(4-(6-(4-chlorophenyl)pyridin-2-ylcarbamoyl)phenoxy)-6,8-dicyclopropylchroman-4-carboxylate]: the EC50 was 52.2 nM.

Regarding `O=C(Nc1cccc(-c2ccc(Cl)cc2)n1)c1ccc(Oc2c(Cl)cc3c(c2C2CC2)OCCC3C(=O)O)cc1` (stereo not drawn) [Example 108, Sodium 6-chloro-7-(4-(6-(4-chlorophenyl)pyridin-2-ylcarbamoyl)phenoxy)-8-cyclopropylchroman-4-carboxylate], the EC50 was 144 nM.

As for `O=C(Nc1cccc(-c2ccc(F)cc2)n1)c1ccc(Oc2cc3c(cc2Cl)C(C(=O)O)CCO3)cc1` (stereo not drawn) [Example 109, 6-Chloro-7-(4-(6-(4-fluorophenyl)pyridin-2-ylcarbamoyl)phenoxy)chroman-4-carboxylic acid], the 50% effective concentration (EC50) amounted to 129 nM.

On to `O=C(Nc1cccc(-c2ccc(C(F)(F)F)cc2)n1)c1ccc(Oc2cc3c(cc2Cl)C(C(=O)O)CCO3)cc1` (stereo not drawn) [Example 110, 6-Chloro-7-(4-(6-(4-(trifluoromethyl)phenyl)pyridin-2-ylcarbamoyl)phenoxy)chroman-4-carboxylic acid], for which the EC50 was found to be 25.2 nM.

In the case of `O=C(Nc1cccc(C2CC2)n1)c1ccc(Oc2cc3c(cc2Cl)C(C(=O)O)CCO3)cc1` (stereo not drawn) [Example 111, 6-Chloro-7-(4-(6-cyclopropylpyridin-2-ylcarbamoyl)phenoxy)chroman-4-carboxylic acid], the EC50 was 1460 nM.

Turning to `O=C(Nc1cccc(-c2cccc(C(F)(F)F)c2)n1)c1ccc(Oc2cc3c(cc2Cl)C(C(=O)O)CCO3)cc1` (stereo not drawn) [Example 112, 6-Chloro-7-(4-(6-(3-(trifluoromethyl)phenyl)pyridin-2-ylcarbamoyl)phenoxy)chroman-4-carboxylic acid], the EC50 turned out to be 46 nM.

Turning to `O=C(Nc1cccc(-c2ccnc(C(F)(F)F)c2)n1)c1ccc(Oc2cc3c(cc2Cl)C(C(=O)O)CCO3)cc1` (stereo not drawn) [Example 113, 6-Chloro-7-(4-(2′-(trifluoromethyl)-2,4′-bipyridin-6-ylcarbamoyl)phenoxy)chroman-4-carboxylic acid], the EC50 is 452 nM.

Consider `CC(C)(C)c1cccc(NC(=O)c2ccc(Oc3cc4c(cc3Cl)C(C(=O)O)CCO4)cc2)n1` (stereo not drawn) [Example 114, 7-(4-(6-tert-Butylpyridin-2-ylcarbamoyl)phenoxy)-6-chlorochroman-4-carboxylic acid], for which the EC50 is 276 nM.

Consider `O=C(Nc1ccc(-c2ccc(Cl)cc2)cn1)c1ccc(Oc2cc3c(cc2Cl)C(C(=O)O)CCO3)cc1` (stereo not drawn) [Example 115, 6-Chloro-7-(4-(5-(4-chlorophenyl)pyridin-2-ylcarbamoyl)phenoxy)chroman-4-carboxylic acid], for which the EC50 amounted to 342 nM.

With `O=C(Nc1ccc(-c2cccc(Cl)c2)cn1)c1ccc(Oc2cc3c(cc2Cl)C(C(=O)O)CCO3)cc1` (stereo not drawn) [Example 116, 6-Chloro-7-(4-(5-(3-chlorophenyl)pyridin-2-ylcarbamoyl)phenoxy)chroman-4-carboxylic acid], the EC50 amounted to 82.8 nM.

Regarding `O=C(Nc1ccc(-c2ccccc2Cl)cn1)c1ccc(Oc2cc3c(cc2Cl)C(C(=O)O)CCO3)cc1` (stereo not drawn) [Example 117, 6-Chloro-7-(4-(5-(2-chlorophenyl)pyridin-2-ylcarbamoyl)phenoxy)chroman-4-carboxylic acid], the EC50 is 264 nM.

For the compound `O=C(Nc1ccc(-c2ccc(C(F)(F)F)cc2)cn1)c1ccc(Oc2cc3c(cc2Cl)C(C(=O)O)CCO3)cc1` (stereo not drawn) [Example 118, 6-Chloro-7-(4-(5-(4-(trifluoromethyl)phenyl)pyridin-2-ylcarbamoyl)phenoxy)chroman-4-carboxylic acid], the EC50 was 100 nM.

For `O=C(Nc1ccc(-c2cccc(C(F)(F)F)c2)cn1)c1ccc(Oc2cc3c(cc2Cl)C(C(=O)O)CCO3)cc1` (stereo not drawn) [Example 119], the EC50 worked out at 422 nM.

On to `O=C(Nc1cc(-c2ccc(Cl)cc2)ccn1)c1ccc(Oc2cc3c(cc2Cl)C(C(=O)O)CCO3)cc1` (stereo not drawn) [Example 120, 6-Chloro-7-(4-(4-(4-chlorophenyl)pyridin-2-ylcarbamoyl)phenoxy)chroman-4-carboxylic acid], for which the EC50 came out at 2730 nM.

Consider `O=C(Nc1cc(-c2cccc(Cl)c2)ccn1)c1ccc(Oc2cc3c(cc2Cl)C(C(=O)O)CCO3)cc1` (stereo not drawn) [Example 121, 6-Chloro-7-(4-(4-(3-chlorophenyl)pyridin-2-ylcarbamoyl)phenoxy)chroman-4-carboxylic acid], for which the EC50 was 1890 nM.
